Assay results reported in PubChem BioAssay (NCI).
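Cultured in 96-well plates, cells were exposed to test compound for 48 hours across five concentrations. TGI is the concentration that stops growth completely.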

Experiments:
Experiment in all cases: NCI-60 cell line screen, 48 h
786-0 renal = test system: 786-0 renal
A498 renal = test system: A498 renal
A549 NSCLC = test system: A549 NSCLC
ACHN renal = test system: ACHN renal
BT-549 breast = test system: BT-549 breast
CAKI-1 renal = test system: CAKI-1 renal
CCRF-CEM leukemia = test system: CCRF-CEM leukemia
COLO 205 colon = test system: COLO 205 colon
DLD-1 colon = test system: DLD-1 colon
DMS 273 small cell lung = test system: DMS 273 small cell lung
DU-145 prostate = test system: DU-145 prostate
EKVX NSCLC = test system: EKVX NSCLC
HCC-2998 colon = test system: HCC-2998 colon
HCT-116 colon = test system: HCT-116 colon
HCT-15 colon = test system: HCT-15 colon
HL-60(TB) leukemia = test system: HL-60(TB) leukemia
HOP-62 NSCLC = test system: HOP-62 NSCLC
HOP-92 NSCLC = test system: HOP-92 NSCLC
HS 578T breast = test system: HS 578T breast
HT29 colon = test system: HT29 colon
IGROV1 ovarian = test system: IGROV1 ovarian
K-562 leukemia = test system: K-562 leukemia
KM12 colon = test system: KM12 colon
LOX IMVI melanoma = test system: LOX IMVI melanoma
LXFL 529 NSCLC = test system: LXFL 529 NSCLC
M14 melanoma = test system: M14 melanoma
MALME-3M melanoma = test system: MALME-3M melanoma
MCF7 breast = test system: MCF7 breast
MDA-MB-231 breast = test system: MDA-MB-231 breast
MDA-MB-435 = test system: MDA-MB-435
MDA-N = test system: MDA-N
MOLT-4 leukemia = test system: MOLT-4 leukemia
NCI-H226 lung = test system: NCI-H226 lung
NCI-H23 lung = test system: NCI-H23 lung
NCI-H460 lung = test system: NCI-H460 lung
NCI-H522 lung = test system: NCI-H522 lung
NCI/ADR-RES ovarian = test system: NCI/ADR-RES ovarian
OVCAR-3 ovarian = test system: OVCAR-3 ovarian
OVCAR-4 ovarian = test system: OVCAR-4 ovarian
OVCAR-5 ovarian = test system: OVCAR-5 ovarian
OVCAR-8 ovarian = test system: OVCAR-8 ovarian
PC-3 prostate = test system: PC-3 prostate
RPMI-8226 leukemia = test system: RPMI-8226 leukemia
RXF 393 renal = test system: RXF 393 renal
SF-268 CNS = test system: SF-268 CNS
SF-295 CNS = test system: SF-295 CNS
SF-539 CNS = test system: SF-539 CNS
SK-MEL-2 melanoma = test system: SK-MEL-2 melanoma
SK-MEL-28 melanoma = test system: SK-MEL-28 melanoma
SK-MEL-5 melanoma = test system: SK-MEL-5 melanoma
SK-OV-3 ovarian = test system: SK-OV-3 ovarian
SN12C renal = test system: SN12C renal
SNB-19 CNS = test system: SNB-19 CNS
SNB-75 CNS = test system: SNB-75 CNS
SNB-78 CNS = test system: SNB-78 CNS
SR leukemia = test system: SR leukemia
SW-620 colon = test system: SW-620 colon
T-47D breast = test system: T-47D breast
TK-10 renal = test system: TK-10 renal
U251 CNS = test system: U251 CNS
UACC-257 melanoma = test system: UACC-257 melanoma
UACC-62 melanoma = test system: UACC-62 melanoma
UO-31 renal = test system: UO-31 renal
XF 498 CNS = test system: XF 498 CNS

Cc1cc2c(c3c1c1ccccc1n3C)C(=O)C=CC2=O was tested, and the TGI (786-0 renal) was 17.3 µM, the TGI (A498 renal) was over 100 µM and the TGI (A549 NSCLC) was over 100 µM. For the same molecule, the TGI (ACHN renal) was over 64.6 µM, the TGI (BT-549 breast) was 31.4 µM and the TGI (CAKI-1 renal) was over 70.2 µM. For the same molecule, the TGI (CCRF-CEM leukemia) was over 24 µM, the TGI (COLO 205 colon) was over 100 µM and the TGI (DLD-1 colon) was 20.4 µM. For the same molecule, the TGI (DMS 273 small cell lung) was 55.9 µM, the TGI (DU-145 prostate) was over 100 µM and the TGI (EKVX NSCLC) was over 100 µM. It also gave a TGI (HCC-2998 colon) of over 92.5 µM, a TGI (HCT-116 colon) of 43.8 µM and a TGI (HCT-15 colon) of 36.5 µM. For the same molecule, the TGI (HL-60(TB) leukemia) was 16 µM, the TGI (HOP-62 NSCLC) was over 100 µM and the TGI (HOP-92 NSCLC) was 31.4 µM. The TGI (HS 578T breast) was 80.5 µM, the TGI (HT29 colon) was over 70.2 µM and the TGI (IGROV1 ovarian) was over 78.2 µM. The TGI (K-562 leukemia) was over 54 µM, the TGI (KM12 colon) was 57.9 µM and the TGI (LOX IMVI melanoma) was 35.6 µM. It also gave a TGI (LXFL 529 NSCLC) of 16.7 µM, a TGI (M14 melanoma) of 88 µM and a TGI (MALME-3M melanoma) of over 82.6 µM. The TGI (MCF7 breast) was 25.8 µM, the TGI (MDA-MB-231 breast) was 75 µM and the TGI (MDA-MB-435) was over 100 µM. For the same molecule, the TGI (MDA-N) was 62.5 µM, the TGI (MOLT-4 leukemia) was 12 µM and the TGI (NCI-H226 lung) was over 100 µM. It also gave a TGI (NCI-H23 lung) of 31 µM, a TGI (NCI-H460 lung) of over 100 µM and a TGI (NCI-H522 lung) of 34.7 µM. It also gave a TGI (NCI/ADR-RES ovarian) of over 100 µM, a TGI (OVCAR-3 ovarian) of 22.9 µM and a TGI (OVCAR-4 ovarian) of 30.6 µM. For the same molecule, the TGI (OVCAR-5 ovarian) was over 100 µM, the TGI (OVCAR-8 ovarian) was 56.4 µM and the TGI (PC-3 prostate) was 36.3 µM. For the same molecule, the TGI (RPMI-8226 leukemia) was 26.5 µM, the TGI (RXF 393 renal) was 30.5 µM and the TGI (SF-268 CNS) was 70.5 µM. The TGI (SF-295 CNS) was over 88.4 µM, the TGI (SF-539 CNS) was 71 µM and the TGI (SK-MEL-2 melanoma) was 51.9 µM. For the same molecule, the TGI (SK-MEL-28 melanoma) was 47.9 µM, the TGI (SK-MEL-5 melanoma) was over 90.1 µM and the TGI (SK-OV-3 ovarian) was over 100 µM. For the same molecule, the TGI (SN12C renal) was over 82.7 µM, the TGI (SNB-19 CNS) was over 100 µM and the TGI (SNB-75 CNS) was over 100 µM. For the same molecule, the TGI (SNB-78 CNS) was 98.7 µM, the TGI (SR leukemia) was 4.56 µM and the TGI (SW-620 colon) was 28.7 µM. It also gave a TGI (T-47D breast) of 48.8 µM, a TGI (TK-10 renal) of 65 µM and a TGI (U251 CNS) of 45.1 µM. It also gave a TGI (UACC-257 melanoma) of 69 µM, a TGI (UACC-62 melanoma) of 51.1 µM and a TGI (UO-31 renal) of 36.5 µM. It also gave a TGI (XF 498 CNS) of 37.9 µM.
With COc1cc2oc(=O)cc(C)c2cc1[N+](=O)[O-] the TGI (786-0 renal) was 49.5 µM, the TGI (A498 renal) was over 84 µM and the TGI (A549 NSCLC) was over 100 µM. For the same molecule, the TGI (ACHN renal) was over 100 µM, the TGI (BT-549 breast) was 35.9 µM and the TGI (CAKI-1 renal) was over 51.5 µM. It also gave a TGI (CCRF-CEM leukemia) of over 100 µM, a TGI (COLO 205 colon) of over 60.6 µM and a TGI (DU-145 prostate) of over 100 µM. It also gave a TGI (EKVX NSCLC) of over 100 µM, a TGI (HCC-2998 colon) of 22.2 µM and a TGI (HCT-116 colon) of 32.3 µM. It also gave a TGI (HCT-15 colon) of 44.4 µM, a TGI (HL-60(TB) leukemia) of 44 µM and a TGI (HOP-62 NSCLC) of over 100 µM. The TGI (HOP-92 NSCLC) was 57.1 µM, the TGI (HS 578T breast) was over 90.3 µM and the TGI (HT29 colon) was over 57.8 µM. The TGI (IGROV1 ovarian) was over 84.8 µM, the TGI (K-562 leukemia) was over 100 µM and the TGI (KM12 colon) was over 57.3 µM. The TGI (LOX IMVI melanoma) was 28.6 µM, the TGI (M14 melanoma) was 37.9 µM and the TGI (MALME-3M melanoma) was 49.5 µM. It also gave a TGI (MCF7 breast) of over 100 µM, a TGI (MDA-MB-231 breast) of 71.6 µM and a TGI (MDA-MB-435) of 46.8 µM. The TGI (MDA-N) was 28.4 µM, the TGI (MOLT-4 leukemia) was 60.9 µM and the TGI (NCI-H226 lung) was 26.9 µM. The TGI (NCI-H23 lung) was 51.5 µM, the TGI (NCI-H460 lung) was over 100 µM and the TGI (NCI-H522 lung) was 26.3 µM. It also gave a TGI (NCI/ADR-RES ovarian) of over 79.3 µM, a TGI (OVCAR-3 ovarian) of 64.1 µM and a TGI (OVCAR-4 ovarian) of 84.1 µM. It also gave a TGI (OVCAR-5 ovarian) of over 79 µM, a TGI (OVCAR-8 ovarian) of 40.7 µM and a TGI (PC-3 prostate) of over 67.6 µM. For the same molecule, the TGI (RPMI-8226 leukemia) was over 75.3 µM, the TGI (RXF 393 renal) was 33.8 µM and the TGI (SF-268 CNS) was 45 µM. It also gave a TGI (SF-295 CNS) of over 100 µM, a TGI (SF-539 CNS) of 57.7 µM and a TGI (SK-MEL-2 melanoma) of 58 µM. It also gave a TGI (SK-MEL-28 melanoma) of 64.6 µM, a TGI (SK-MEL-5 melanoma) of over 65.1 µM and a TGI (SK-OV-3 ovarian) of over 100 µM. For the same molecule, the TGI (SN12C renal) was 37.2 µM, the TGI (SNB-19 CNS) was over 100 µM and the TGI (SNB-75 CNS) was over 100 µM. For the same molecule, the TGI (SR leukemia) was over 100 µM, the TGI (SW-620 colon) was over 64.1 µM and the TGI (T-47D breast) was 77.2 µM. The TGI (TK-10 renal) was 83.6 µM, the TGI (U251 CNS) was over 100 µM and the TGI (UACC-257 melanoma) was 33.5 µM. It also gave a TGI (UACC-62 melanoma) of 34.6 µM and a TGI (UO-31 renal) of over 87.6 µM.
